Source: PubChem BioAssay (NCI)
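Where inhibition never reached the appropriate level, the endpoint shown equals the highest concentration tested. Otherwise, values were interpolated linearly from a five-concentration, 48-hour dose response in 96-well plates. The concentration for full growth arrest is given as TGI.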

Columns and labels:
Test in all cases: DTP human tumour cell line panel, 48 h
HOP-62 NSCLC = test system: HOP-62 NSCLC
MDA-MB-435 = test system: MDA-MB-435
HCT-116 colon = test system: HCT-116 colon
HOP-92 NSCLC = test system: HOP-92 NSCLC
SN12C renal = test system: SN12C renal
NCI/ADR-RES ovarian = test system: NCI/ADR-RES ovarian
MCF7 breast = test system: MCF7 breast
RPMI-8226 leukemia = test system: RPMI-8226 leukemia
IGROV1 ovarian = test system: IGROV1 ovarian
SF-295 CNS = test system: SF-295 CNS
UACC-62 melanoma = test system: UACC-62 melanoma
OVCAR-4 ovarian = test system: OVCAR-4 ovarian
MDA-MB-231 breast = test system: MDA-MB-231 breast
COLO 205 colon = test system: COLO 205 colon
LOX IMVI melanoma = test system: LOX IMVI melanoma
SR leukemia = test system: SR leukemia
KM12 colon = test system: KM12 colon
MALME-3M melanoma = test system: MALME-3M melanoma
CAKI-1 renal = test system: CAKI-1 renal
HCC-2998 colon = test system: HCC-2998 colon
NCI-H23 lung = test system: NCI-H23 lung
HL-60(TB) leukemia = test system: HL-60(TB) leukemia
SF-539 CNS = test system: SF-539 CNS
NCI-H522 lung = test system: NCI-H522 lung
EKVX NSCLC = test system: EKVX NSCLC
T-47D breast = test system: T-47D breast
U251 CNS = test system: U251 CNS
BT-549 breast = test system: BT-549 breast
SK-OV-3 ovarian = test system: SK-OV-3 ovarian
SF-268 CNS = test system: SF-268 CNS
UACC-257 melanoma = test system: UACC-257 melanoma
786-0 renal = test system: 786-0 renal
HCT-15 colon = test system: HCT-15 colon
OVCAR-8 ovarian = test system: OVCAR-8 ovarian
RXF 393 renal = test system: RXF 393 renal
A498 renal = test system: A498 renal
DU-145 prostate = test system: DU-145 prostate
OVCAR-3 ovarian = test system: OVCAR-3 ovarian
SK-MEL-5 melanoma = test system: SK-MEL-5 melanoma
A549 NSCLC = test system: A549 NSCLC
K-562 leukemia = test system: K-562 leukemia
TK-10 renal = test system: TK-10 renal
ACHN renal = test system: ACHN renal
UO-31 renal = test system: UO-31 renal
SW-620 colon = test system: SW-620 colon
MOLT-4 leukemia = test system: MOLT-4 leukemia
MDA-N = test system: MDA-N
SK-MEL-2 melanoma = test system: SK-MEL-2 melanoma
SNB-75 CNS = test system: SNB-75 CNS
NCI-H226 lung = test system: NCI-H226 lung
HT29 colon = test system: HT29 colon
SNB-19 CNS = test system: SNB-19 CNS
PC-3 prostate = test system: PC-3 prostate
M14 melanoma = test system: M14 melanoma
CCRF-CEM leukemia = test system: CCRF-CEM leukemia
OVCAR-5 ovarian = test system: OVCAR-5 ovarian
HS 578T breast = test system: HS 578T breast
SK-MEL-28 melanoma = test system: SK-MEL-28 melanoma
NCI-H460 lung = test system: NCI-H460 lung

**Q.** How did the TGI (HOP-62 NSCLC) turn out when `N#Cc1c(C#N)c(-c2ccco2)n(-c2ccccc2)c1N` was run?
**A.** The TGI was greater than 100 µM.

**Q.** What about the TGI (MDA-MB-435) of the same compound?
**A.** The TGI was greater than 100 µM.

**Q.** What about the TGI (HCT-116 colon) of the same compound?
**A.** The TGI was greater than 100 µM.

**Q.** What about the TGI (HOP-92 NSCLC) of the same compound?
**A.** The TGI was greater than 100 µM.

**Q.** And the TGI (SN12C renal)?
**A.** The TGI was greater than 100 µM.

**Q.** And the TGI (NCI/ADR-RES ovarian)?
**A.** The TGI was greater than 100 µM.

**Q.** What about the TGI (MCF7 breast) of the same compound?
**A.** Its TGI is greater than 100 µM.

**Q.** And the TGI (RPMI-8226 leukemia)?
**A.** Its TGI is greater than 100 µM.

**Q.** And the TGI (IGROV1 ovarian)?
**A.** Its TGI is greater than 100 µM.

**Q.** What about the TGI (SF-295 CNS) of the same compound?
**A.** Its TGI is greater than 100 µM.

**Q.** What about the TGI (UACC-62 melanoma) of the same compound?
**A.** The TGI was greater than 100 µM.

**Q.** What about the TGI (OVCAR-4 ovarian) of the same compound?
**A.** Its TGI is greater than 100 µM.

**Q.** What about the TGI (MDA-MB-231 breast) of the same compound?
**A.** The TGI was greater than 100 µM.

**Q.** What about the TGI (COLO 205 colon) of the same compound?
**A.** Its TGI is greater than 100 µM.

**Q.** And the TGI (LOX IMVI melanoma)?
**A.** Its TGI is greater than 100 µM.

**Q.** What about the TGI (SR leukemia) of the same compound?
**A.** The TGI was greater than 100 µM.

**Q.** What about the TGI (KM12 colon) of the same compound?
**A.** The TGI was greater than 100 µM.

**Q.** What about the TGI (MALME-3M melanoma) of the same compound?
**A.** Its TGI is greater than 100 µM.

**Q.** And the TGI (CAKI-1 renal)?
**A.** The TGI was greater than 100 µM.

**Q.** What about the TGI (HCC-2998 colon) of the same compound?
**A.** Its TGI is greater than 100 µM.

**Q.** What about the TGI (NCI-H23 lung) of the same compound?
**A.** The TGI was greater than 100 µM.

**Q.** And the TGI (HL-60(TB) leukemia)?
**A.** Its TGI is greater than 100 µM.

**Q.** What about the TGI (SF-539 CNS) of the same compound?
**A.** The TGI was greater than 100 µM.

**Q.** What about the TGI (NCI-H522 lung) of the same compound?
**A.** The TGI was greater than 100 µM.

**Q.** And the TGI (EKVX NSCLC)?
**A.** Its TGI is greater than 100 µM.

**Q.** What about the TGI (T-47D breast) of the same compound?
**A.** Its TGI is greater than 100 µM.

**Q.** What about the TGI (U251 CNS) of the same compound?
**A.** The TGI was greater than 100 µM.

**Q.** What about the TGI (BT-549 breast) of the same compound?
**A.** The TGI was greater than 100 µM.

**Q.** What about the TGI (SK-OV-3 ovarian) of the same compound?
**A.** Its TGI is greater than 100 µM.

**Q.** And the TGI (SF-268 CNS)?
**A.** The TGI was greater than 100 µM.

**Q.** And the TGI (UACC-257 melanoma)?
**A.** The TGI was greater than 100 µM.

**Q.** What about the TGI (786-0 renal) of the same compound?
**A.** Its TGI is greater than 100 µM.

**Q.** What about the TGI (HCT-15 colon) of the same compound?
**A.** Its TGI is greater than 100 µM.

**Q.** What about the TGI (OVCAR-8 ovarian) of the same compound?
**A.** The TGI was 73.1 µM.

**Q.** What about the TGI (RXF 393 renal) of the same compound?
**A.** Its TGI is greater than 100 µM.

**Q.** And the TGI (A498 renal)?
**A.** The TGI was greater than 100 µM.

**Q.** What about the TGI (DU-145 prostate) of the same compound?
**A.** Its TGI is greater than 100 µM.

**Q.** And the TGI (OVCAR-3 ovarian)?
**A.** Its TGI is greater than 100 µM.

**Q.** And the TGI (SK-MEL-5 melanoma)?
**A.** Its TGI is greater than 100 µM.

**Q.** What about the TGI (A549 NSCLC) of the same compound?
**A.** Its TGI is greater than 100 µM.

**Q.** And the TGI (K-562 leukemia)?
**A.** Its TGI is greater than 100 µM.

**Q.** And the TGI (TK-10 renal)?
**A.** The TGI was greater than 100 µM.

**Q.** What about the TGI (ACHN renal) of the same compound?
**A.** Its TGI is greater than 100 µM.

**Q.** And the TGI (UO-31 renal)?
**A.** Its TGI is greater than 100 µM.

**Q.** And the TGI (SW-620 colon)?
**A.** The TGI was greater than 100 µM.

**Q.** What about the TGI (MOLT-4 leukemia) of the same compound?
**A.** The TGI was greater than 100 µM.

**Q.** What about the TGI (MDA-N) of the same compound?
**A.** The TGI was greater than 100 µM.

**Q.** What about the TGI (SK-MEL-2 melanoma) of the same compound?
**A.** Its TGI is greater than 100 µM.

**Q.** And the TGI (SNB-75 CNS)?
**A.** The TGI was 84.4 µM.

**Q.** What about the TGI (NCI-H226 lung) of the same compound?
**A.** Its TGI is greater than 100 µM.

**Q.** What about the TGI (HT29 colon) of the same compound?
**A.** Its TGI is greater than 100 µM.

**Q.** And the TGI (SNB-19 CNS)?
**A.** The TGI was greater than 100 µM.

**Q.** What about the TGI (PC-3 prostate) of the same compound?
**A.** The TGI was greater than 100 µM.

**Q.** And the TGI (M14 melanoma)?
**A.** The TGI was greater than 100 µM.

**Q.** And the TGI (CCRF-CEM leukemia)?
**A.** The TGI was greater than 100 µM.

**Q.** And the TGI (OVCAR-5 ovarian)?
**A.** The TGI was greater than 100 µM.

**Q.** What does the source list for `CC(C)[Si](OC1=C(C(=O)N(C)c2ccccc2Cl)CCCC1)(C(C)C)C(C)C`?
**A.** TGI (HOP-62 NSCLC): 34.6 µM; TGI (MDA-MB-435): 31.2 µM; TGI (HOP-92 NSCLC): 26.3 µM; TGI (NCI/ADR-RES ovarian): 29.6 µM; TGI (MCF7 breast): 27.2 µM; TGI (RPMI-8226 leukemia): 55.4 µM; TGI (IGROV1 ovarian): 31.4 µM; TGI (SF-295 CNS): 20.9 µM; TGI (UACC-62 melanoma): 34 µM; TGI (OVCAR-4 ovarian): 28.9 µM; TGI (MDA-MB-231 breast): 31.3 µM; TGI (COLO 205 colon): 29.3 µM; TGI (LOX IMVI melanoma): 30 µM; TGI (SR leukemia): 24.1 µM; TGI (KM12 colon): 27.5 µM; TGI (MALME-3M melanoma): 26.4 µM; TGI (CAKI-1 renal): 27.3 µM; TGI (HCC-2998 colon): 28.1 µM; TGI (NCI-H23 lung): 31.4 µM; TGI (SF-539 CNS): 32.7 µM; TGI (NCI-H522 lung): 19.2 µM; TGI (EKVX NSCLC): 28 µM; TGI (T-47D breast): 10.5 µM; TGI (U251 CNS): 25.8 µM; TGI (SK-OV-3 ovarian): 28.5 µM; TGI (SF-268 CNS): 29.2 µM; TGI (UACC-257 melanoma): 24.1 µM; TGI (HS 578T breast): 30.7 µM; TGI (786-0 renal): 34.6 µM; TGI (HCT-15 colon): 31.2 µM; TGI (OVCAR-8 ovarian): 30.2 µM; TGI (SK-MEL-28 melanoma): 37.4 µM; TGI (RXF 393 renal): 30.1 µM; TGI (A498 renal): 31 µM; TGI (DU-145 prostate): 22.5 µM; TGI (OVCAR-3 ovarian): 27.5 µM; TGI (SK-MEL-5 melanoma): 27.5 µM; TGI (A549 NSCLC): 14.3 µM; TGI (K-562 leukemia): > 100 µM; TGI (NCI-H460 lung): 28.6 µM; TGI (TK-10 renal): 29.5 µM; TGI (ACHN renal): 29.5 µM; TGI (UO-31 renal): 27.6 µM; TGI (SW-620 colon): 33.3 µM; TGI (MOLT-4 leukemia): 43 µM; TGI (MDA-N): 34.3 µM; TGI (SK-MEL-2 melanoma): 29.3 µM; TGI (SNB-75 CNS): 27.5 µM; TGI (NCI-H226 lung): 31 µM; TGI (HT29 colon): 32.3 µM; TGI (SNB-19 CNS): 25.6 µM; TGI (PC-3 prostate): 24.4 µM; TGI (M14 melanoma): 30.2 µM; TGI (CCRF-CEM leukemia): 29.7 µM; TGI (OVCAR-5 ovarian): 26.3 µM
